Columns and labels:
Experiment in all cases: relative viability (nuclei count vs DMSO), 5 days (fraction); higher = more cells survive
[1] = compound: C1CSC2=C(C(=O)N1)SC3=C2C=C(C=C3)O [kb NB 142-70] + Cc1cc(Nc2cc(N3CCN(C)CC3)nc(Sc3ccc(NC(=O)C4CC4)cc3)n2)n[nH]1 [Tozasertib] (partner 0.1 µM)
In short: (§1)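 A single step with final 0.05% Triton X-100, 1% formaldehyde and 1 ug/ml Hoechst fixed the cells and stained nuclei 5 days after treatment. Lung cancer cell lines in 1536-well plates had been treated by pin tool the day after seeding with one drug alone or a fixed anchor-drug dose plus five library-drug doses (not always all listed) in √10 steps, and nuclei were counted on 4× images. Relative viability is the ratio of nuclei in treated wells to nuclei in vehicle wells, taken as the median of duplicate plates.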

[2] = compound: NCC(=O)Nc1ccc(-n2nc(C(F)(F)F)cc2-c2ccc3c(ccc4ccccc43)c2)cc1 + CC(=O)Nc1cccc(-n2c(=O)n(C3CC3)c(=O)c3c(Nc4ccc(I)cc4F)n(C)c(=O)c(C)c32)c1 [Trametinib] (partner 0.02 µM)
In short: as §1

[3] = compound: NCC(=O)Nc1ccc(-n2nc(C(F)(F)F)cc2-c2ccc3c(ccc4ccccc43)c2)cc1 + COc1cc2c(Oc3ccc(NC(=O)C4(C(=O)Nc5ccc(F)cc5)CC4)cc3F)ccnc2cc1OCCCN1CCOCC1 [Foretinib] (partner 0.25 µM)
In short: as §1

[4] = compound: C1CSC2=C(C(=O)N1)SC3=C2C=C(C=C3)O [kb NB 142-70] + N=C(N)NC(=N)NCCc1ccccc1 [Phenformin] (partner 250 µM)
In short: as §1

Cell Line	relative viability ([1]; first compound 0.1 µM)	relative viability ([1]; first compound 1 µM)	relative viability ([1]; first compound 3.162 µM)	relative viability ([2]; first compound 0.02 µM)	relative viability ([2]; first compound 0.06325 µM)	relative viability ([2]; first compound 0.2 µM)	relative viability ([2]; first compound 0.6325 µM)	relative viability ([2]; first compound 2 µM)	relative viability ([3]; first compound 0.02 µM)	relative viability ([3]; first compound 0.06325 µM)	relative viability ([3]; first compound 0.2 µM)	relative viability ([3]; first compound 0.6325 µM)	relative viability ([3]; first compound 2 µM)	relative viability ([4]; first compound 0.1 µM)	relative viability ([4]; first compound 1 µM)	relative viability ([4]; first compound 3.162 µM)
LC-2-ad	0.451	0.428	0.341	0.952	0.971	0.951	0.95	0.935	0.93	0.998	0.891	0.954	0.984	0.618	0.536	0.458
LCLC-97TM1	0.197	0.207	0.149	0.21	0.215	0.213	0.198	0.189	0.87	0.999	0.924	0.945	0.96	0.407	0.462	0.416
LCLC-103H	0.472	0.524	0.417	0.67	0.688	0.694	0.67	0.618	0.703	0.71	0.938	0.754	0.736	0.352	0.317	0.318
LK-2	0.168	0.167	0.189	0.659	0.751	0.703	0.826	0.686	0.93	1.35	1.35	1.37	1.39	0.5	0.403	0.318
LOU-NH91	0.599	0.557	0.338	0.847	0.832	0.812	0.803	0.795	0.994	0.959	0.965	0.929	1.01	0.615	0.741	0.632
LU99A	0.285	0.237	0.195	0.548	0.678	0.569	0.56	0.48	0.855	0.783	0.932	0.79	0.853	0.789	0.666	0.722
LXF-289	0.173	0.192	0.181	0.716	0.705	0.67	0.672	0.68	0.973	0.979	0.967	0.943	0.968	0.526	0.526	0.457
NCI-H23	0.381	0.37	0.241	0.313	0.456	0.448	0.422	0.352	1.05	0.998	1	0.975	0.987	0.794	0.732	0.53
NCI-H322M	0.464	0.519	0.45	0.521	0.482	0.537	0.5	0.547	1.2	0.945	0.97	0.912	1.04	0.755	0.795	0.86
NCI-H358	0.109	0.0809	0.077	0.127	0.127	0.133	0.138	0.15	0.755	0.721	0.747	0.683	0.816	0.279	0.187	0.0752
NCI-H441	0.663	0.581	0.302	0.394	0.436	0.507	0.523	0.555	0.91	1.03	0.879	0.85	0.97	0.881	0.894	0.633
NCI-H460	0.541	0.397	0.254	0.19	0.175	0.165	0.145	0.18	1.04	1.06	1.09	0.981	1.03	0.55	0.596	0.347
NCI-H520	0.45	0.517	0.37	0.637	0.641	0.747	0.678	0.679	0.852	0.831	0.677	0.725	0.917	0.57	0.515	0.324
NCI-H522	0.521	0.565	0.61	0.596	0.684	0.781	0.92	0.813	–	–	–	–	–	0.633	0.561	0.522
NCI-H596	0.804	0.881	0.749	0.804	0.725	0.827	0.83	1.25	0.956	0.796	0.724	0.9	0.885	0.888	0.77	0.822
NCI-H647	0.274	0.332	0.426	0.535	0.512	0.591	0.434	0.49	1.23	1.32	1.26	1.12	1.12	0.502	0.54	0.44
NCI-H650	0.747	0.668	0.435	0.991	1.03	1.01	0.948	0.994	1.04	1.07	1.02	1.01	1.09	0.462	0.465	0.429
NCI-H661	0.337	0.356	0.353	0.547	0.559	0.56	0.644	0.588	0.985	0.985	1.04	0.974	1.07	0.286	0.263	0.247
NCI-H1299	–	–	–	–	–	–	–	–	1.16	1.12	1.14	1.04	1.15	–	–	–
NCI-H1563	–	–	–	–	–	–	–	–	0.958	1.04	0.94	0.984	0.971	0.656	0.688	0.624
NCI-H1648	0.396	0.524	0.398	0.414	0.533	0.573	0.563	0.506	–	–	–	–	–	–	–	–
NCI-H1703	–	–	–	–	–	–	–	–	0.32	0.289	0.412	0.323	0.34	–	–	–
NCI-H1792	–	–	–	0.486	0.425	0.471	0.406	0.436	–	–	–	–	–	–	0.297	0.392
